Laboratory results from patent publication US12135326B2 (priority 2019, dated 2024).
Where “and” joins values, the source holds several entries; their conditions need not be identical. Equal entries are not always repeated.

Experiments:
WT α-HL nanopore [1] = target: T1, WT α-HL nanopore (Staphylococcus aureus, UniProt P09616); type: binding
WT α-HL nanopore [2] = target: T1, WT α-HL nanopore; type: binding; remark: listed apart in the source

T1 sequence (P09616 27-319 limits assumed): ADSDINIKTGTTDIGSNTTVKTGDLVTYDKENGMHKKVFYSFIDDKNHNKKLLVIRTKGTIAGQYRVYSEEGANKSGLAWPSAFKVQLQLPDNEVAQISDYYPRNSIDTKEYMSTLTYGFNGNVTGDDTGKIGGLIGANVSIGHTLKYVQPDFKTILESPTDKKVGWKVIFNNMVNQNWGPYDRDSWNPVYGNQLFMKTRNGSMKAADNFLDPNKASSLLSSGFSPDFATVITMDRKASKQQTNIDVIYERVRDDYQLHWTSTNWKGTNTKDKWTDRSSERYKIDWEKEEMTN

Substance	Ip (mean blockage depth) (WT α-HL nanopore [1])	τoff (WT α-HL nanopore [1])	1/τoff (WT α-HL nanopore [2])	mean Fp (mean blockage depth) (WT α-HL nanopore [2])	mean τoff (dwell time constant) (WT α-HL nanopore [2])	mean value of % F (blockade level % Fb, center value±FWHM) (WT α-HL nanopore [2])	sensing / translocation through α-HL nanopore by DOP (in words) (WT α-HL nanopore [2])
Trimethyl-β-cyclodextrin [TriM-β-CD]	0.065±0.002	0.386 ± 0.392 s	2.515 ± 0.440 s⁻¹ and 2.437 ± 0.449 s⁻¹ and 2.953 ± 0.616 s⁻¹ and 3.640 ± 0.330 s⁻¹	0.078±0.010	0.347 ± 0.067 s		
5′-GATAGTGAGCCAAATTTAAA-3′ [oligomeric ssDNA]						0.289±0.175	able to pass through the α-HL nanopore
